From US20250051356A1, “RIFABUTIN ANALOGS FOR THE TREATMENT OF DISEASE” (priority 2021, published 2025)
≈ marks a conversion by molar mass, not a printed value. Like-named read-outs stand apart in the source and are kept apart here.

Assays:
Format in all cases: cell-based
[1] = system: S. aureus (UAMS-1625 strain); test: MIC by broth microdilution against S. aureus; settings: Staphylococcus aureus, read-out: MIC S. aureus
[2] = system: A. baumannii (HUMC1 strain); test: MIC by broth microdilution against A. baumannii in RPMI + 10% FCS; settings: Acinetobacter baumannii, read-out: MIC A. baumannii
[3] = system: M. abscessus subsp. abscessus ATCC 19977; test: MIC against M. abscessus in Middlebrook 7H9 + ADC; settings: Mycobacteroides abscessus
[4] = ATCC19977, ATCC 19977, 7H9 + ADC, read-out: MIC M. abscessus

Row | Compound | MIC [1] | MIC ([2]; HUMC1 strain, RPMI + 10% FCS) | MIC [3, 4] | MIC [2] | MIC ([3]; ATCC19977, read-out: MIC M. abscessus)
1 | CO[C@H]1/C=C/O[C@@]2(C)Oc3c(C)c(O)c4c(c3C2=O)C2=NC3(CCN(CC(C)C)CC3)NC2=C(NC(=O)/C(C)=C\C=C\[C@H](C)[C@H](O)[C@@H](C)[C@@H](O)[C@@H](C)[C@H](OC(=O)C(C)C(=O)N2CCN(c3ccccc3S(N)(=O)=O)CC2)[C@@H]1C)C4=O (stereo partly drawn) [Compound 38] | 0.25 µg/mL (≈ 0.222 µM) | 0.008 µg/mL | 0.5 µg/mL | – | –
2 | CO[C@H]1/C=C/O[C@@]2(C)Oc3c(C)c(O)c4c(c3C2=O)C2=NC3(CCN(CC(C)C)CC3)NC2=C(NC(=O)/C(C)=C\C=C\[C@H](C)[C@H](O)[C@@H](C)[C@@H](O)[C@@H](C)[C@H](OC(=O)C(C)C(=O)N2CCC(Nc3ccccc3)CC2)[C@@H]1C)C4=O (stereo partly drawn) [Compound 41] | 0.5 µg/mL (≈ 0.47 µM) | – | – | 0.016 µg/mL | 0.5 µg/mL
3 | CO[C@H]1/C=C/O[C@@]2(C)Oc3c(C)c(O)c4c(c3C2=O)C2=NC3(CCN(CC(C)C)CC3)NC2=C(NC(=O)/C(C)=C\C=C\[C@H](C)[C@H](O)[C@@H](C)[C@@H](O)[C@@H](C)[C@H](OC(=O)C(C)C(=O)N2CCC(n3c(=O)[nH]c5ccccc53)CC2)[C@@H]1C)C4=O (stereo partly drawn) [Compound 42] | 0.5 µg/mL (≈ 0.453 µM) | 0.03 µg/mL | 0.5 µg/mL | – | –
4 | CO[C@H]1/C=C/O[C@@]2(C)Oc3c(C)c(O)c4c(c3C2=O)C2=NC3(CCN(CC(C)C)CC3)NC2=C(NC(=O)/C(C)=C\C=C\[C@H](C)[C@H](O)[C@@H](C)[C@@H](O)[C@@H](C)[C@H](OC(=O)C(C)C(=O)N2CCc3[nH]c5ccccc5c3C2)[C@@H]1C)C4=O (stereo partly drawn) [Compound 43] | 0.5 µg/mL (≈ 0.472 µM) | 0.06 µg/mL | 0.5 µg/mL | – | –
5 | CO[C@H]1/C=C/O[C@@]2(C)Oc3c(C)c(O)c4c(c3C2=O)C2=NC3(CCN(CC(C)C)CC3)NC2=C(NC(=O)/C(C)=C\C=C\[C@H](C)[C@H](O)[C@@H](C)[C@@H](O)[C@@H](C)[C@H](OC(=O)CC(=O)OC2CCN(C)CC2)[C@@H]1C)C4=O [Compound 45] | 0.06 µg/mL (≈ 0.0607 µM) | 0.004 µg/mL | 0.5 µg/mL | – | –
6 | CO[C@H]1/C=C/O[C@@]2(C)Oc3c(C)c(O)c4c(c3C2=O)C2=NC3(CCN(CC(C)C)CC3)NC2=C(NC(=O)/C(C)=C\C=C\[C@H](C)[C@H](O)[C@@H](C)[C@@H](O)[C@@H](C)[C@H](OC(=O)CC(=O)N2CCC(n3c(=O)[nH]c5ccccc53)CC2)[C@@H]1C)C4=O [Compound 46] | 0.25 µg/mL (≈ 0.229 µM) | 0.03 µg/mL | 0.5 µg/mL | – | –
7 | CO[C@H]1/C=C/O[C@@]2(C)Oc3c(C)c(O)c4c(c3C2=O)C2=NC3(CCN(CC(C)C)CC3)NC2=C(NC(=O)/C(C)=C\C=C\[C@H](C)[C@H](O)[C@@H](C)[C@@H](O)[C@@H](C)[C@H](OC(=O)CC(=O)N2CCC(n3c(=O)[nH]c5cc(Cl)ccc53)CC2)[C@@H]1C)C4=O [Compound 47] | 1 µg/mL (≈ 0.889 µM) | 0.125 µg/mL | 0.5 µg/mL | – | –
8 | CO[C@H]1/C=C/O[C@@]2(C)Oc3c(C)c(O)c4c(c3C2=O)C2=NC3(CCN(CC(C)C)CC3)NC2=C(NC(=O)/C(C)=C\C=C\[C@H](C)[C@H](O)[C@@H](C)[C@@H](O)[C@@H](C)[C@H](OC(=O)CC(=O)N2CCC3(CC2)C(=O)NCN3c2ccccc2)[C@@H]1C)C4=O [Compound 48] | 0.25 µg/mL (≈ 0.226 µM) | 0.03 µg/mL | 0.5 µg/mL | – | –
9 | COc1cc(CC2CCN(C(=O)CC(=O)O[C@H]3[C@H](C)[C@H](O)[C@H](C)[C@@H](O)[C@@H](C)/C=C/C=C(/C)C(=O)NC4=C5NC6(CCN(CC(C)C)CC6)N=C5c5c(c(O)c(C)c6c5C(=O)[C@@](C)(O/C=C/[C@H](OC)[C@H]3C)O6)C4=O)CC2)cc(C(F)(F)F)c1 [Compound 51] | 2 µg/mL (≈ 1.74 µM) | 0.06 µg/mL | 1 µg/mL | – | –
10 | CO[C@H]1/C=C/O[C@@]2(C)Oc3c(C)c(O)c4c(c3C2=O)C2=NC3(CCN(CC(C)C)CC3)NC2=C(NC(=O)/C(C)=C\C=C\[C@H](C)[C@H](O)[C@@H](C)[C@@H](O)[C@@H](C)[C@H](OC(=O)CC(=O)N2CCC([C@@H](O)c3nccn3C)CC2)[C@@H]1C)C4=O [Compound 53] | 0.125 µg/mL (≈ 0.117 µM) | ≤ 0.002 µg/mL | 1 µg/mL | – | –
11 | CO[C@H]1/C=C/O[C@@]2(C)Oc3c(C)c(O)c4c(c3C2=O)C2=NC3(CCN(CC(C)C)CC3)NC2=C(NC(=O)/C(C)=C\C=C\[C@H](C)[C@H](O)[C@@H](C)[C@@H](O)[C@@H](C)[C@H](OC(=O)CC(=O)N2CCC(N3CCCCC3)CC2)[C@@H]1C)C4=O [Compound 58] | 0.03 µg/mL (≈ 0.0288 µM) | ≤ 0.002 µg/mL | 1 µg/mL | – | –
12 | CO[C@H]1/C=C/O[C@@]2(C)Oc3c(C)c(O)c4c(c3C2=O)C2=NC3(CCN(CC(C)C)CC3)NC2=C(NC(=O)/C(C)=C\C=C\[C@H](C)[C@H](O)[C@@H](C)[C@@H](O)[C@@H](C)[C@H](OC(=O)CC(=O)N2CCC(NC(=O)OC(C)(C)C)CC2)[C@@H]1C)C4=O [Compound 59] | 0.125 µg/mL (≈ 0.116 µM) | 0.008 µg/mL | 0.5 µg/mL | – | –
13 | CO[C@H]1/C=C/O[C@@]2(C)Oc3c(C)c(O)c4c(c3C2=O)C2=NC3(CCN(CC(C)C)CC3)NC2=C(NC(=O)/C(C)=C\C=C\[C@H](C)[C@H](O)[C@@H](C)[C@@H](O)[C@@H](C)[C@H](OC(=O)CC(=O)N2CCC(n3cccn3)CC2)[C@@H]1C)C4=O [Compound 60] | 0.03 µg/mL (≈ 0.0293 µM) | ≤ 0.002 µg/mL | 0.5 µg/mL | – | –
